{"source": "patent US20140065610A1", "about": "“METHOD FOR PREDICTING CLINICAL BENEFIT IN THE TREATMENT OF NEURODEVELOPMENTAL, NEUROLOGICAL OR NEUROPSYCHIATRIC DISORDERS” (priority 2011, published 2014)", "format_in_all_cases": "in vivo, human", "key": {"[1]": {"tested_on": "adults with schizophrenia with predominantly negative symptoms", "assay": "Phase II GRI schizophrenia trial: change of PANSS negative symptom factor score from baseline", "procedure": "FIG. 2: Change of PANSS negative symptom factor score from baseline in all patients (FIG. 2(a)) and in CFHR1-low patients (FIG. 2(b)) and CFHR1-high patients (FIG. 2(c)) using natural cutoff for CFHR1. Patients with serum concentration ≦28 ug/ml were classified as CFHR1-low and patients with serum concentration >28 ug/ml were classified as CFHR1-high. Estimates of expected response and standard error bars from MMRM analysis. Dash-dot line and circle Placebo; solid line and squares 10 mg GRI; solid line and upward-pointing triangles 30 mg GRI; dashed line and diamonds 60 mg GRI.\n(§1) A Phase II study was performed in adults with schizophrenia with predominantly negative symptoms. The individuals were clinically stable and on stable treatment with second generation antipsychotics. The study was conducted at multiple sites in Brazil, France, Germany, Hungary, Japan, Mexico, Poland, Russia, and the US according to ICH Guidelines for Good Clinical Practice (ClinicalTrials.gov Identifier: NCT00616798). The study protocol was approved by the health authorities of each country and the respective ethic committees of each site. All 323 patients had provided written consent to participate in the study and 224 patients had consented to the collection and use of serum samples for exploratory biomarker analysis. After a screening and a 4-week run-in period, patients were randomized to double-blind adjunctive treatment with placebo, 10 mg, 30 mg, or 60 mg of GRI given once a day for a duration of 8 weeks, followed by 4 week follow-up period. Similar percentages of patients in the four treatment arms completed the study.\n(§2) Patients were assessed at screening, week −2, baseline, weeks 1, 2, 4, 6, 8, 10 and 12. Assessments included the PANSS, Clinical Global Impression—Severity of Illness (CGI-S) and Clinical Global Impression-Global Improvement (CGI-I) for overall psychopathology 56, CGI-S and CGI-I of Negative Symptoms (CGI-S-N, CGI-I-N) for assessment of negative symptoms only 57, and standard examinations of extrapyramidal symptoms (BAS58, SAS59, AIMS60). The primary efficacy variable assessing effects on negative symptoms was the change from baseline in the PANSS negative symptom factor score 64. Secondary efficacy variables were i) proportion of patients showing a clinical response in negative symptom defined as a 20% change from baseline in the PANSS negative symptom factor score and ii) CGI-I-N. Additional analyses included change in PANSS total score, remaining PANSS factor scores 64 CGI-S and CGI-I.\nResults for the overall patient cohort are shown in the top panel, for the CFHR1-low patients in the middle panel and for the CFHR1-high patients in the lower panel. […]"}, "[2]": {"tested_on": "adults with schizophrenia with predominantly negative symptoms", "assay": "Phase II GRI schizophrenia trial: PANSS negative symptom factor score responder rate", "conditions": "after 8 weeks", "procedure": "FIG. 3: Response rates of dichotomized PANSS negative symptom factor score (response defined as ≧20% drop from baseline) at week 8. Shaded background bars are response rates in overall per protocol population. Solid grey bars are response rates in CFHR1 stratified subpopulations using natural cut-off for CFHR1.\nas §1, §2\nFor the 10 mg arm the response rate in the CFHR1-high group was 88% compared to 69% in the non-stratified group, and for the 30 mg arm the response rate in the CFHR1-high group was 78% compared to 66% in the non-stratified group."}, "[3]": {"tested_on": "adults with schizophrenia with predominantly negative symptoms", "assay": "Phase II GRI schizophrenia trial: CGI-I negative symptoms responder rate", "description": "FIG. 4: Response rates of dichotomized CGI-I negative symptoms rating score (response defined as “much improved” or “very much improved”) at week 8. Shaded background bars are response rates in overall per protocol population. Solid grey bars are response rates in CFHR1 stratified subpopulations using natural cut-off for CFHR1.\nFIG. 6: Response rates of dichotomized CGI-I negative symptoms rating score (response defined as “much improved” or “very much improved”) at week 8. Shaded background bars are response rates in overall per protocol population. Solid grey bars are response rates in CFHR1 stratified subpopulations using CFHR1/CFH ratio, with L (low) corresponding to CFHR1/CFH ratio below 0.01, M (medium) corresponding to CFHR1/CFH ratio above 0.01 and below 0.08 and with H (high) corresponding to CFHR1/CFH ratio above 0.08.\nFIG. 9: Response rates of dichotomized CGI-I negative symptoms rating score (response defined as “much improved” or “very much improved”) at week 8. Shaded background bars are response rates in overall per protocol population from those who had consented for DNA sample. Solid grey bars are response rates in CFHR1 stratified subpopulations using genetic status of CFHR1 allele.\nas §1, §2\nAs a secondary endpoint in the clinical trial the Clinical Global Impression (CGI) improvement of negative symptoms between baseline and week 8 evaluation was used. This outcome measure was treated as a binary variable. […] The analysis was performed on the combined placebo, 10 mg and 30 mg biomarker population using the per protocol (PP) population. Explanatory variables for this analysis are the baseline measurements of all measured proteins, the treatment (placebo or pooled 10 mg/30 mg treatment) and the treatment-protein interaction. A logistic regression model was used as predictor.\nFor the 10 mg arm the response rate in the CFHR1-high group was 69% compared to 39% in the non-stratified group, and for the 30 mg arm the response rate in the CFHR1-high group was 67% compared to 45% in the non-stratified group. […]"}, "[4]": {"conditions": "10 mg arm, non-stratified group"}, "[5]": {"conditions": "30 mg arm, non-stratified group"}}}
{"smiles": "C[C@H](Oc1ccc(S(C)(=O)=O)cc1C(=O)N1CCN(c2ncc(C(F)(F)F)cc2F)CC1)C(F)(F)F", "note": "[GRI, [4-(3-fluoro-5-trifluoromethyl-pyridin-2-yl)-piperazin-1-yl]-[5-methanesulfonyl-2-((S)-2,2,2-trifluoro-1-methyl-ethoxy)-phenyl]-methanone]", "values": [{"measurement": "effect size, change in PANSS negative symptom factor score from baseline", "setting": "[1]; 10 mg arm, CFHR1-high group (serum CFHR1 >28 ug/ml), 8 weeks, vs placebo", "result": "−1.01"}, {"measurement": "effect size, change in PANSS negative symptom factor score from baseline", "setting": "[1]; [4]", "result": "−0.42"}, {"measurement": "effect size, change in PANSS negative symptom factor score from baseline", "setting": "[1]; 30 mg arm, CFHR1-high group (serum CFHR1 >28 ug/ml)", "result": "−0.76"}, {"measurement": "effect size, change in PANSS negative symptom factor score from baseline", "setting": "[1]; [5]", "result": "−0.47"}, {"measurement": "response rate, PANSS negative symptom factor score (at least 20% decrease from baseline)", "setting": "[2]; 10 mg arm, CFHR1-high group", "result": 88, "unit": "%"}, {"measurement": "response rate, PANSS negative symptom factor score (at least 20% decrease from baseline)", "setting": "[2]; [4]", "result": 69, "unit": "%"}, {"measurement": "response rate, PANSS negative symptom factor score (at least 20% decrease from baseline)", "setting": "[2]; 30 mg arm, CFHR1-high group", "result": 78, "unit": "%"}, {"measurement": "response rate, PANSS negative symptom factor score (at least 20% decrease from baseline)", "setting": "[2]; [5]", "result": 66, "unit": "%"}, {"measurement": "response rate, CGI of negative symptoms", "setting": "[3]; 10 mg arm, CFHR1+/+ group (genetic status)", "result": 57, "unit": "%"}, {"measurement": "response rate, CGI of negative symptoms", "setting": "[3]; 10 mg arm, CFHR1-high group (natural cut-off 28 ug/ml), week 8", "result": 69, "unit": "%"}, {"measurement": "response rate, CGI of negative symptoms", "setting": "[3]; 10 mg arm, H subgroup (CFHR1/CFH ratio above 0.08)", "result": 69, "unit": "%"}, {"measurement": "response rate, CGI of negative symptoms", "setting": "[3]; 10 mg arm, L group (CFHR1/CFH ratio below 0.01), small sample size", "result": 0, "unit": "%"}, {"measurement": "response rate, CGI of negative symptoms", "setting": "[3]; 10 mg arm, M subgroup (CFHR1/CFH ratio medium)", "result": 19, "unit": "%"}, {"measurement": "response rate, CGI of negative symptoms", "setting": "[3]; 10 mg arm, non-stratified group of patients who consented for DNA sample", "result": 39, "unit": "%"}, {"measurement": "response rate, CGI of negative symptoms", "setting": "[3]; 10 mg arm, non-stratified serum subgroup, week 8", "result": 39, "unit": "%"}, {"measurement": "response rate, CGI of negative symptoms", "setting": "[3]; 30 mg arm, CFHR1+/+ group (genetic status)", "result": 67, "unit": "%"}, {"measurement": "response rate, CGI of negative symptoms", "setting": "[3]; 30 mg arm, CFHR1-high group (natural cut-off 28 ug/ml), week 8", "result": 67, "unit": "%"}, {"measurement": "response rate, CGI of negative symptoms", "setting": "[3]; 30 mg arm, H subgroup (CFHR1/CFH ratio above 0.08)", "result": 67, "unit": "%"}, {"measurement": "response rate, CGI of negative symptoms", "setting": "[3]; 30 mg arm, L group (CFHR1/CFH ratio below 0.01), small sample size", "result": 0, "unit": "%"}, {"measurement": "response rate, CGI of negative symptoms", "setting": "[3]; 30 mg arm, M subgroup (CFHR1/CFH ratio medium)", "result": 28, "unit": "%"}, {"measurement": "response rate, CGI of negative symptoms", "setting": "[3]; 30 mg arm, non-stratified group of patients who consented for DNA sample", "result": 46, "unit": "%"}, {"measurement": "response rate, CGI of negative symptoms", "setting": "[3]; 30 mg arm, non-stratified serum subgroup, week 8", "result": 45, "unit": "%"}, {"measurement": "response rate, CGI of negative symptoms", "setting": "[3]; 60 mg arm, H subgroup (CFHR1/CFH ratio above 0.08)", "result": 33, "unit": "%"}, {"measurement": "response rate, CGI of negative symptoms", "setting": "[3]; 60 mg arm, L group (CFHR1/CFH ratio below 0.01), small sample size", "result": 100, "unit": "%"}, {"measurement": "response rate, CGI of negative symptoms", "setting": "[3]; 60 mg arm, M subgroup (CFHR1/CFH ratio medium)", "result": 25, "unit": "%"}, {"measurement": "response rate, CGI of negative symptoms", "setting": "[3]; 60 mg arm, non-stratified serum subgroup, week 8", "result": 34, "unit": "%"}]}
